Measurements published in paper PMC2918672 (Journal of molecular biology, 2010).
Square brackets hold non-standard residues; d marks the D form. Ends that are not written are not given here. Sta = CC(C)C[C@H](N)[C@@H](O)CC(=O)O

Test system: L40I mutant HTLV-1 PR
Experiment: Inhibition of L40I mutant HTLV-1 PR, fluorescent substrate cleavage
Type: biochemical, Human T-cell leukemia virus type 1 (HTLV-1)
Conditions: test compound 50 nM; L40I mutant HTLV-1 PR 1 μg in 50 μL reaction mixture (as a dimer); substrate H-Lys([7-methoxycoumarin-4-yl]acetyl)-APQVL-(p-nitrophenylalanine)-VMHPL-OH; inverse percentage of remaining activity; single determination

In the case of Ac-APQV[Sta]VMHP [Statine Inhibitor], the “Percent inhibition (%) at 50 nM” value is reported as 19%.
